Test results from patent US20140094413A1, “HEPATOCYTE GROWTH FACTOR (HGF) MIMICS AS THERAPEUTIC AGENTS” (WASHINGTON STATE UNIVERSITY, priority 2012, published 2014).
Where “and” joins values, the source holds several entries; their conditions need not be identical. Identical values can stand only once. Where a SMILES comes first, the peptide text is derived from it. [ ]: non-standard residue; d: D form. The star is where a group is joined. Nle = CCCC[C@H](N)C(=O)O; Hexanoyl = CCCCCC(=O)*; Ahx = NCCCCCC(=O)O

Tests used:
[1] = test system: hippocampal neurons transfected with shMet; experiment: Spinogenesis after c-Met knock-down with shRNA; type: cell-based, rat; details: HGF 10 ng/ml, 48 hours
From the text: (§1) Neurons were transfected with mRFP-β-actin on day in vitro 6 (DIV6) using LipofectAMINE™ 2000 (Invitrogen) according to the manufacturer's protocol. This protocol yielded the desired 3-5% transfection efficiency thus enabling the visualization of individual neurons. Higher efficiencies obscured the dendritic arbor of individual neurons. Expression of fluorescently tagged actin allowed clear visualization of dendritic spines, as dendritic spines are enriched in actin. On DIV7 the cells were treated with vehicle (H20) or peptides (as described in the text) added to media. On DIV12 the neurons were fixed (4% paraformaldehyde, 3% sucrose, 60 mM PIPES, 25 mM HEPES, 5 mM EGTA, 1 mM MgCl2, pH 7.4) for 20 min at room temperature and mounted. Slides were dried for at least 20 hours at 4° C. and fluorescent images were obtained with Slidebook 4.2 Digital Microscopy Software driving an Olympus IX81 inverted confocal microscope with a 60× oil immersion lens, NA 1.4 and resolution 0.280 μm Dendritic spine density was measured on primary and secondary dendrites at a distance of at least 150 μm from the soma. Five 50 μm long segments of dendrite from at least 10 neurons per data point were analyzed for each data point reported. Each experiment was repeated at least three times using independent culture preparations. Dendrite length was determined using the National Institutes of Health's Image J 1.41o program (NIH, Bethesda, Md.) and the neurite tracing program Neuron J (Meijering, Jacob et al. 2004) Spines were manually counted.
A target sequence for c-Met was designed using RNAi central design program (see the website located at cancan.cshl.edu/). […]. The shRNA was transfected into cells using the lipofectamine method described above. Verification of receptor knockdown was done by creating a c-Met-6-Myc tagged gene product using the Gateway cloning system (Invitrogen). The Met protein coding sequence was cloned from rat whole brain cDNA using primers obtained from Integrated DNA Technologies, Inc. The amplified product was gel purified and a band corresponding to […] band excised and cloned into a PCAGGS-6-Myc destination vector (Gateway).
To irrefutably confirm that the AngIV analogues act via the HGF/c-met system an shRNA for c-Met was employed to knock-down the receptor. Dissociated hippocampal neurons were transfected with mRFP-β-actin and shMet RNA and receptor knock-down was allowed to take place for 48 hours prior to stimulating with 0.5 μg (per well) HGF (10 ng/ml), Dihexa or Nle1-AngIV (both at 10^−12M). Longer exposure appeared to be detrimental or toxic to the neurons. Effective c-Met receptor knock-down was verified by transfecting human embryonic kidney (HEK) cells with (0.1 μg) 6-Myc-tagged c-Met, (0.1 μg) shMet or mRFP-β-actin alone. Successful knockdown was confirmed by immunoblotting for Myc tagged c-met using an anti-Myc antibody (FIG. 19).

[2] = test system: hippocampal neurons; experiment: Spinogenesis in mRFP-β-actin transfected dissociated hippocampal neurons; type: cell-based, rat; details: for Spine numbers (spinogenesis) vs vehicle: 1 μM as printed in FIG. 34 legend; for Number of spines per 50 μm dendrite length: 10^−10 M; for Increase in the number of spines vs vehicle: 5 day treatment; for Spine density, dose dependence: 5 day stimulation, wide range of concentrations
Description: (§2) Hippocampal neurons (2×10^5 cells per square cm) were cultured from P1 Sprague Dawley rats on plates coated with poly-L-lysine from Sigma (St. Louis, Mo.; molecular weight 300,000). Hippocampal neurons were maintained in Neurobasal A media from Invitrogen (Carlsbad, Calif.) supplemented with B27 from Invitrogen, 0.5 mM L-glutamine, and […] cytosine-D-arabinofuranoside from Sigma added at 2 days in vitro. Hippocampal neurons were then cultured a further 3-7 days, at which time they were either transfected or treated with various pharmacological reagents as described in (Wayman, Davare et al. 2008).
as §1, with “actin. […]” for “actin.”, “DIV 12” for “DIV7 the cells were treated with vehicle (H20) or peptides (as described in the text) added to media. On DIV12”
as §2, with “centimeter)” for “cm)”, “P1-2” for “P1”, “the text or figure legends.” for “(Wayman, Davare et al. 2008).”
as §1, with “On DIV7 the cells were treated with vehicle (H20) or peptides (as described in the text) added to media.” left out, “Dendrite length was determined using the National Institutes of Health's Image J 1.41o program (NIH, Bethesda, Md.) and the neurite tracing program Neuron J (Meijering, Jacob et al. 2004) Spines were manually counted.” left out

[3] = neurons transfected with mRFP-β-actin alone, Dihexa or Nle1-AngIV 10^−12M
[4] = neurons transfected with mRFP-β-actin and shMet, Dihexa or Nle1-AngIV 10^−12 M
[5] = 10^−12 M, acute 30 minute application on DIV 12

Compound: CCCCCC(=O)N[C@@H](Cc1ccc(O)cc1)C(=O)N[C@H](C(=O)NCCCCCC(N)=O)[C@@H](C)CC [Dihexa, N-hexanoic-Tyr-Ile-(6)-aminohexanoic amide] (Hexanoyl-Tyr-Ile-[Ahx]-NH2)
- Mean spine numbers per 50 μm dendrite length [1, 3]: 21.8 spines per 50 μm dendrite leng
- Mean spine numbers per 50 μm dendrite length [1, 4]: 12.0 spines per 50 μm dendrite leng
- Concentration active in stimulating synaptogenesis [2]: 10^−12 M
- Spine numbers (spinogenesis) vs vehicle [2]: dramatic increase in spine numbers
- Number of spines per 50 μm dendrite length ([2]; 5 days): 11 spines per 50 μm dendrite length
- Average spine head width ([2]; 10^−12 M): 0.80 μm
- Increase in the number of spines vs vehicle ([2]; 10^−12 M): ~3 fold
- Mean spine numbers per 50 μm dendrite length [2, 5]: 23.9 spines per 50 μm dendrite length
- Spine density, dose dependence [2]: dose-dependently stimulate spinogenesis

Compound: CCCC[C@H](N)C(=O)N[C@@H](Cc1ccc(O)cc1)C(=O)N[C@H](C(=O)N[C@@H](Cc1c[nH]cn1)C(=O)N1CCC[C@H]1C(=O)N[C@@H](Cc1ccccc1)C(=O)O)[C@@H](C)CC [Nle1-AngIV, reference compound] (H-[Nle]YIHPF-OH; N-terminus and C-terminus assumed)
- Mean spine numbers per 50 μm dendrite length [1, 3]: 20.0 spines per 50 μm dendrite leng
- Mean spine numbers per 50 μm dendrite length [1, 4]: 12.1 spines per 50 μm dendrite leng
- Spine numbers (spinogenesis) vs vehicle [2]: dramatic increase in spine numbers
- Number of spines per 50 μm dendrite length ([2]; 5 days): 22 spines per 50 μm dendrite length
- Average spine head width ([2]; 10^−12 M): 0.87 μm
- Increase in the number of spines vs vehicle ([2]; 10^−12 M): greater than 2 fold
- Mean spine numbers per 50 μm dendrite length [2, 5]: 2.6 spines per 50 μm dendrite length
- Spine density, dose dependence [2]: dose-dependently stimulate spinogenesis

Compound: HGF: Hepatocyte growth factor, recombinant, purchased from R&D Systems
- Mean spine numbers per 50 μm dendrite length [1, 3]: 20.6 spines per 50 μm dendrite leng
- Mean spine numbers per 50 μm dendrite length [1, 4]: 12.4 spines per 50 μm dendrite leng
- Mean spine numbers per 50 μm dendrite length ([2]; HGF 2.5 ng/ml (sub-threshold), 5 days): 18.6 spines per 50 μm dendrite leng and 16.5 spines per 50 μm dendrite leng
- Mean spine numbers per 50 μm dendrite length ([2]; HGF 5 ng/ml, 5 days): 24.7 spines per 50 μm dendrite leng
- Mean spine numbers per 50 μm dendrite length ([2]; HGF 10 ng/ml, 5 days): 27.5 spines per 50 μm dendrite leng and 29.3 spines per 50 μm dendrite leng
- Mean spine numbers per 50 μm dendrite length ([2]; HGF 20 ng/ml, 5 days): 27.0 spines per 50 μm dendrite leng
